Numbering of substitutions follows the chain as printed. Like-named read-outs stand apart in the source and are kept apart here.
Experiments:
OR5K1 L104^3.32A = biological target: T1, OR5K1 L104^3.32A (Homo sapiens, UniProt Q8NHB7, L104A); experiment: cAMP-luminescence concentration-response assay, mutant OR5K1 L104^3.32A in HEK-293 cells; format: cell-based; conditions: OR5K1 L104^3.32A mutant; mean ± SD, n = 4
T1 construct: The protein-coding region of human OR5K1 (NM_001004736.3); IL-6-HaloTag (from expression plasmid pFN210A) (N); expressed in transfected cells; host or cells: HEK-293
T1 sequence (Q8NHB7 1-308 L104A): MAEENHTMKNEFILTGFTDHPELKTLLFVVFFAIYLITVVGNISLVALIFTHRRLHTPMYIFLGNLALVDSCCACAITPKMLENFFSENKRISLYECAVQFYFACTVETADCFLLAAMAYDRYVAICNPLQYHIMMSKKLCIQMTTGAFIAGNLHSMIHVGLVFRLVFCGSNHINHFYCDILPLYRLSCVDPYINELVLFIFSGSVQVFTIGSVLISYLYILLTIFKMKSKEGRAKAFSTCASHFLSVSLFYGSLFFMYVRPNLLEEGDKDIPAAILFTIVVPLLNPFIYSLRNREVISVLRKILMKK
Description: (§1) Mutants L104^3.32 and L255^6.51 were generated by PCR-based site-directed mutagenesis in two steps. Step one PCR was performed in two amplifications: one with the forward vector-internal primer and the reverse mutation-primer and the other with the forward mutation-primer and the reverse vector-internal primer. Amplification was performed with the touchdown approach described above. Both PCR amplicons were then purified and used as a template for step two. The two overlapping amplicons were annealed using the following touchdown program: denaturation (98 °C, 3 min), ten cycles containing denaturation (98 °C, 30 s), annealing (start 60 °C, 30 s), and extension (72 °C, 2 min). […]
(§2) We utilized HEK-293 cells,[101] a human embryonic kidney cell-line, as a test cell system for the functional expression of ORs.[102] […] The utilized pGloSensor-22F is a genetically engineered luciferase with a cAMP-binding pocket, allowing for measurements of a direct cAMP-dependent luminescence signal. […]
(§3) Concentration–response assays were measured 42 h post-transfection as described previously.[102] […] For luminescence measurements, the GloMax Discover microplate reader (Promega, Madison, USA) was used. After incubation for 50 min in the dark, the basal luminescence signal of each well was recorded thrice. […]

OR5K1 L255^6.51A = biological target: T2, OR5K1 L255^6.51A (Homo sapiens, UniProt Q8NHB7, L255A); experiment: cAMP-luminescence concentration-response assay, mutant OR5K1 L255^6.51A in HEK-293 cells; format: cell-based; conditions: OR5K1 L255^6.51A mutant; mean ± SD, n = 4
T2 construct: The protein-coding region of human OR5K1 (NM_001004736.3); IL-6-HaloTag (from expression plasmid pFN210A) (N); expressed in transfected cells; host or cells: HEK-293
T2 sequence (Q8NHB7 1-308 L255A): T1 sequence (Q8NHB7 1-308 L104A) with A104L, L255A
Description: as §1, §2, §3

OR5K1 [1] = biological target: T3, OR5K1 (Homo sapiens, UniProt Q8NHB7); set-up: method as in PMID 34047404; conditions: cited from earlier work; for EC50: OR5K1 agonist activity, data retrieved from the literature
T3 construct: The protein-coding region of human OR5K1 (NM_001004736.3); IL-6-HaloTag (from expression plasmid pFN210A) (N); expressed in transfected cells; host or cells: HEK-293
T3 sequence (Q8NHB7 1-308): T1 sequence (Q8NHB7 1-308 L104A) with A104L

OR5K1 [2] = biological target: T3, OR5K1; experiment: cAMP-luminescence (GloSensor) concentration-response assay, OR5K1 transiently expressed in HEK-293 cells; format: cell-based; conditions: OR5K1 agonist activity, tested in this work, mean ± SD, n = 4, last tested concentration 300 μM
Description: We utilized HEK-293 cells,[101] a human embryonic kidney cell-line, as a test cell system for the functional expression of ORs.[102] Cells were cultivated at 37 °C, 5% CO2, and 100% humidity in 4.5 g/L D-glucose containing DMEM with 10% fetal bovine serum, 2 mM L-glutamine, 100 U/mL penicillin, and 100 U/mL streptomycin. Cells were cultured in a 96-well format (Nunclon Delta Surface, #136102; Thermo Fisher Scientific, Schwerte, Germany) at 12,000 cells/well overnight. Then, cells were transfected utilizing 0.75 μL/well ViaFect (#E4981, Promega, USA) with the following constructs: 100 ng/well of the respective OR construct, 50 ng/well of chaperone RTP1S,[103] 50 ng/well of the G protein subunit Gαolf,[104],[105] olfactory G protein subunit Gγ13,[106] and 50 ng/well of pGloSensor-22F (Promega, Madison, USA).[107] The utilized pGloSensor-22F is a genetically engineered luciferase with a cAMP-binding pocket, allowing for measurements of a direct cAMP-dependent luminescence signal. All measurements were mock-controlled, i.e. pFN210A without OR was transfected in parallel.
as §3, with “thrice. Then the odorant, serially diluted in the physiological salt buffer with added Pluronic PE-10500 (BASF, Ludwigshafen, Germany), was applied to the cells, and luminescence was measured thrice after 10 min of incubation time.” for “thrice.”
The raw luminescence data obtained from the GloMax Discover microplate reader detection system were analyzed for concentration/response assays by averaging both data points of basal levels and data points after odorant application. For a given luminescence signal, the respective basal level was subtracted, and the now corrected data set was normalized to the maximum amplitude of the reference. […]

Compound	EC50 (OR5K1 [1])	other results
CCc1ncc(C)nc1CC [Compound 1, 2,3-Diethyl-5-methylpyrazine]	10.3 ± 1.06 µM	EC50 (OR5K1 L104^3.32A): 525 ± 92.3 µM; EC50 (OR5K1 L255^6.51A): 478 ± 185 µM
CCc1nc(C)cnc1C [Compound 2, 2-Ethyl-3,6-dimethylpyrazine]		EC50 (OR5K1 [2]; read-out: EC50): 14.8 ± 6.69 µM
C=CCc1ccc(OC)c(OC)c1 [Compound 3, Methyl eugenol]	62.2 ± 1.45 µM	
CCc1nccnc1CC [Compound 4, 2,3-Diethylpyrazine]	94.4 ± 11.9 µM	
CCc1nccnc1OC [Compound 5, 2-Ethyl-3-methoxypyrazine]	97.4 ± 15.6 µM	
Cc1cnc(C)c(C)n1 [Compound 6, 2,3,5-Trimethylpyrazine]	139 ± 7.08 µM	
CCc1nccnc1C [Compound 7, 2-Ethyl-3-methylpyrazine]	538 ± 96.8 µM	
COc1nccnc1C(C)C [Compound 9, 2-Isopropyl-3-methoxypyrazine]	146 ± 8.83 µM	
CCc1nccnc1C(C)=O [Compound 10, 2-Acetyl-3-ethylpyrazine]	528 ± 167 µM	
CC(=O)c1nccnc1C [Compound 11, 2-Acetyl-3-methylpyrazine]	531 ± 27.6 µM	
Cc1cncc(C)n1 [Compound 12, 2,6-Dimethylpyrazine]	544 ± 19.5 µM	
CCc1ncc(C)nc1C [Compound 13, 2-Ethyl-3,5-dimethylpyrazine]		EC50 (OR5K1 [2]): could not be measured to saturation; EC50 (OR5K1 [2]; read-out: EC50): > 300 µM
c1cnccn1 [pyrazine, reference compound]		activation of OR5K1 (OR5K1 [1]): does not activate
